Some results are limits rather than exact numbers.

Common to all, as to format: cell-based
For test [1], the system named is MCF-7 breast cancer cell line. Put plainly: MTS cell viability (antiproliferative) assay in MCF-7. The conditions noted are these: MTS assay, 72 hours, mean ± SD; for IC50: Homo sapiens, MCF7, 72 h. On the procedure:
(§1) Hormone-positive breast cancer cell line MCF-7 (ATCC-HTB-22; ATCC) was grown in Dulbecco's Modified Eagle's Medium (DMEM), while Ewing sarcoma cell line SK-N-MC (a kind gift from Beat Schäfer) and THP-1 (ATCC-TIB-202; ATCC) cells were grown in Roswell Park Memorial Institute (RPMI) 1640. The medium was supplemented with 10% heat-inactivated fetal bovine serum (Gibco, Thermo Fisher Scientific, Waltham, MA, USA), 100 U per mL penicillin, 100 μg per mL streptomycin, and 2 mM L-glutamine (all from Sigma-Aldrich, St. Louis, MO, USA). All cell lines were incubated at 37 °C in a 5% CO2 atmosphere.
(§2) The antiproliferative activity of the compounds was evaluated against MCF-7 (ATCC-HTB-22; ATCC), SK-N-MC (a kind gift from Beat Schäfer) and THP-1 (ATCC-TIB-202; ATCC) cancer cell lines using the MTS assay (Promega, Madison, WI, USA). Cells were seeded in 96-well plates at a density of 2 × 10^4 cells per mL in 100 μL of growth medium for THP-1 and were treated with compounds and controls directly, while 3 × 10^3 cells per mL for MCF-7 and SK-N-MC were seeded in 100 μL of growth medium and allowed to adhere overnight following the treatment. In all cases the cells were treated with respective newly prepared compounds, positive controls (17-DMAG for MCF-7 and SK-N-MC; PU-H71 for THP-1) and a vehicle control (0.5% DMSO). The incubation time after treatment was 72 hours, then CellTiter96® Aqueous One Solution Reagent (Promega, Madison, WI, USA) was added to each well. Following a 3 hours incubation, absorbance was measured at 492 nm using BioTek's Synergy™ 4 Hybrid Microplate Reader (Winooski, VT, USA). The measurements were performed in two biological repetitions and each time the experiment was performed in a triplicate. The IC50 values, representing the concentration of inhibitor required for half-maximal inhibition, are the average of three independent experiments and were calculated using GraphPad Prism 9.5.0 software (San Diego, CA, USA).
In general terms: Formazan colour is commonly taken as a measure of viable cells.

For the next test, the system named is leukemia cell line THP-1. As to the kind of experiment: MTS cell viability (antiproliferative) assay in THP-1. The conditions noted are these: Homo sapiens, THP-1, 72 hours, mean ± SD. On the procedure:
as §1, §2

In test [2] the test system is Ewing sarcoma cell line SK-N-MC. As to the kind of experiment: MTS cell viability (antiproliferative) assay in SK-N-MC. The conditions noted are these: 72 hours, mean ± SD; for IC50: Homo sapiens, SK-N-MC. On the procedure: as §1, §2

A word on the IC50: it is the concentration that inhibits the measured activity by half. Consider `COc1ccc(OCCN(C)C(=O)c2csc(Nc3cc(C4CCCN(CC#N)C4)nc(C)n3)n2)cc1` (centres unmarked) [Compound 2], for which the IC50 in test [1] turned out to be 47.4 ± 0.9 µM.
In the case of `COc1ccccc1OCCN(C)C(=O)c1csc(Nc2cc(C3CCCN(CC#N)C3)nc(C)n2)n1` (centres unmarked) [Compound 3], the concentration for half-maximal inhibition (IC50) in test [1] was found to be 34.9 ± 2.7 µM.
Same read-out and setting: as for `CN(Cc1ccccc1)C(=O)c1csc(Nc2cc(N3CCCC3)ncn2)n1` [Compound 6a, N-Benzyl-N-methyl-2-((6-(pyrrolidin-1-yl)pyrimidin-4-yl)amino)thiazole-4-carboxamide], the figure is 20.8 ± 2.2 µM.
As for `CN(CCc1ccccc1)C(=O)c1csc(Nc2cc(N3CCCC3)ncn2)n1` [Compound 6b, N-Methyl-N-phenethyl-2-((6-(pyrrolidin-1-yl)pyrimidin-4-yl)amino)thiazole-4-carboxamide], the IC50 in test [1] is 15.2 ± 0.7 µM.
As to `CN(CCOc1ccccc1)C(=O)c1csc(Nc2cc(N3CCCC3)ncn2)n1` [Compound 6c, N-Methyl-N-(2-phenoxyethyl)-2-((6-(pyrrolidin-1-yl)pyrimidin-4-yl)amino)thiazole-4-carboxamide], the IC50 is above 50 µM in the test with leukemia cell line THP-1, 26.2 ± 0.4 µM in test [2] and 28.1 ± 1.4 µM in test [1].
For `CN(Cc1ccccc1)C(=O)c1csc(Nc2cc(N3CCNCC3)ncn2)n1` [Compound 8a, N-Benzyl-N-methyl-2-((6-(piperazin-1-yl)pyrimidin-4-yl)amino)thiazole-4-carboxamide], the IC50 in test [1] was found to be 17.1 ± 1.4 µM.
With `CN(CCc1ccccc1)C(=O)c1csc(Nc2cc(N3CCNCC3)ncn2)n1` [Compound 8b, N-Methyl-N-phenethyl-2-((6-(piperazin-1-yl)pyrimidin-4-yl)amino)thiazole-4-carboxamide], in test [1], the IC50 was 27.3 ± 2 µM.
On the same count and under the same terms, the figure for `O=C(NCCc1ccccc1)c1cccc(Nc2cc(N3CCCC3)ncn2)c1` [Compound 11a, N-Phenethyl-3-((6-(pyrrolidin-1-yl)pyrimidin-4-yl)amino)benzamide] is 20.6 ± 3 µM.
As to `O=C(NCCOc1ccccc1)c1cccc(Nc2cc(N3CCCC3)ncn2)c1` [Compound 11b, N-(2-Phenoxyethyl)-3-((6-(pyrrolidin-1-yl)pyrimidin-4-yl)amino)benzamide], the IC50 is above 50 µM in the test with leukemia cell line THP-1, 26.9 ± 1 µM in test [2] and 14.6 ± 4.5 µM in test [1].
With `CN(Cc1ccccc1)C(=O)c1cccc(Nc2cc(N3CCCC3)ncn2)c1` [Compound 11c, N-Benzyl-N-methyl-3-((6-(pyrrolidin-1-yl)pyrimidin-4-yl)amino)benzamide], the IC50 in test [1] was found to be 36.7 ± 6.1 µM.
As to `CN(CCc1ccccc1)C(=O)c1cccc(Nc2cc(N3CCCC3)ncn2)c1` [Compound 11d, N-Methyl-N-phenethyl-3-((6-(pyrrolidin-1-yl)pyrimidin-4-yl)amino)benzamide], the IC50 in test [1] came to 29.1 ± 5 µM.
Regarding `CN(CCOc1ccccc1)C(=O)c1cccc(Nc2cc(N3CCCC3)ncn2)c1` [Compound 11e, N-Methyl-N-(2-phenoxyethyl)-3-((6-(pyrrolidin-1-yl)pyrimidin-4-yl)amino)benzamide], the IC50 in test [1] was 34.1 ± 2.9 µM.
Turning to `O=C(NCCc1ccccc1)c1ccc(Nc2cc(N3CCCC3)ncn2)cc1` [Compound 11f, N-Phenethyl-4-((6-(pyrrolidin-1-yl)pyrimidin-4-yl)amino)benzamide], the IC50 in test [1] is above 50 µM.
For `O=C(NCCOc1ccccc1)c1ccc(Nc2cc(N3CCCC3)ncn2)cc1` [Compound 11g, N-(2-Phenoxyethyl)-4-((6-(pyrrolidin-1-yl)pyrimidin-4-yl)amino)benzamide], the IC50 (in the test with leukemia cell line THP-1; in test [2]; in test [1]) was above 50 µM in each case. Further, the “SK-N-MC IC50” value in test [2] is “inactive”.
With `CN(Cc1ccccc1)C(=O)c1ccc(Nc2cc(N3CCCC3)ncn2)cc1` [Compound 11h, N-Benzyl-N-methyl-4-((6-(pyrrolidin-1-yl)pyrimidin-4-yl)amino)benzamide], the IC50 in test [1] was 18.3 ± 7 µM.
As to `CN(CCc1ccccc1)C(=O)c1ccc(Nc2cc(N3CCCC3)ncn2)cc1` [Compound 11i, N-Methyl-N-phenethyl-4-((6-(pyrrolidin-1-yl)pyrimidin-4-yl)amino)benzamide], the IC50 in test [1] was found to be 18 ± 1.5 µM.
For `CN(CCOc1ccccc1)C(=O)c1ccc(Nc2cc(N3CCCC3)ncn2)cc1` [Compound 11j, N-Methyl-N-(2-phenoxyethyl)-4-((6-(pyrrolidin-1-yl)pyrimidin-4-yl)amino)benzamide], the IC50 in test [1] is above 50 µM.
Regarding `O=C(NCCc1ccccc1)c1cccc(Nc2cc(N3CCNCC3)ncn2)c1` [Compound 13a, N-Phenethyl-3-((6-(piperazin-1-yl)pyrimidin-4-yl)amino)benzamide], the IC50 in test [1] stood at 31.9 ± 3.2 µM.
Regarding `O=C(NCCOc1ccccc1)c1cccc(Nc2cc(N3CCNCC3)ncn2)c1` [Compound 13b, N-(2-Phenoxyethyl)-3-((6-(piperazin-1-yl)pyrimidin-4-yl)amino)benzamide], the values for the IC50 (with leukemia cell line THP-1; in test [2]; in test [1]) were above 50 µM, 22.2 ± 0.2 µM and 22.5 ± 3.3 µM, respectively.
For `CN(Cc1ccccc1)C(=O)c1cccc(Nc2cc(N3CCNCC3)ncn2)c1` [Compound 13c, N-Benzyl-N-methyl-3-((6-(piperazin-1-yl)pyrimidin-4-yl)amino)benzamide], in test [1], the IC50 was found to be 31.9 ± 2.1 µM.
With `CN(CCc1ccccc1)C(=O)c1cccc(Nc2cc(N3CCNCC3)ncn2)c1` [Compound 13d, N-Methyl-N-phenethyl-3-((6-(piperazin-1-yl)pyrimidin-4-yl)amino)benzamide], in test [1], the IC50 is above 50 µM.
Regarding `CN(CCOc1ccccc1)C(=O)c1cccc(Nc2cc(N3CCNCC3)ncn2)c1` [Compound 13e, N-Methyl-N-(2-phenoxyethyl)-3-((6-(piperazin-1-yl)pyrimidin-4-yl)amino)benzamide], the IC50 in test [1] is above 50 µM.
On the same count and under the same terms, the figure for `O=C(NCCc1ccccc1)c1ccc(Nc2cc(N3CCNCC3)ncn2)cc1` [Compound 13f, N-Phenethyl-4-((6-(piperazin-1-yl)pyrimidin-4-yl)amino)benzamide] is 17.9 ± 0.5 µM.
On to `CN(Cc1ccccc1)C(=O)c1ccc(Nc2cc(N3CCNCC3)ncn2)cc1` [Compound 13h, N-Benzyl-N-methyl-4-((6-(piperazin-1-yl)pyrimidin-4-yl)amino)benzamide], for which the IC50 in test [1] came out at 14.5 ± 4.7 µM.
Take `CN(CCc1ccccc1)C(=O)c1ccc(Nc2cc(N3CCNCC3)ncn2)cc1` [Compound 13i, N-Methyl-N-phenethyl-4-((6-(piperazin-1-yl)pyrimidin-4-yl)amino)benzamide]: the IC50 in test [1] came to 38.3 ± 4.9 µM.
For the compound `CN(CCOc1ccccc1)C(=O)c1ccc(Nc2cc(N3CCNCC3)ncn2)cc1` [Compound 13j, N-Methyl-N-(2-phenoxyethyl)-4-((6-(piperazin-1-yl)pyrimidin-4-yl)amino)benzamide], in test [1], the IC50 is 20.8 ± 2.7 µM.
Consider `CN(CCc1ccccc1)C(=O)c1cccc(Nc2cc(N3CCCCC3)ncn2)c1` [Compound 14, N-Methyl-N-phenethyl-3-((6-(piperidin-1-yl)pyrimidin-4-yl)amino)benzamide], for which, in test [1], the IC50 was above 50 µM.
Turning to `CN(CCc1ccccc1)C(=O)c1cccc(Nc2cc(N3CCC(N)CC3)ncn2)c1` [Compound 18, 3-((6-(4-Aminopiperidin-1-yl)pyrimidin-4-yl)amino)-N-methyl-N-phenethylbenzamide], in test [1], the IC50 is above 50 µM and the “MCF-7 IC50” value is “not active”.
As for `O=C(NCCOc1ccccc1)c1ccc(Nc2cc(N3CCCCC3)ncn2)cc1` [Compound 19, N-(2-Phenoxyethyl)-4-((6-(piperidin-1-yl)pyrimidin-4-yl)amino)benzamide], the IC50 in test [1] was above 50 µM.
With `O=C(NCCOc1ccccc1)c1ccc(Nc2cc(N3CCOCC3)ncn2)cc1` [Compound 20, 4-((6-Morpholinopyrimidin-4-yl)amino)-N-(2-phenoxyethyl)benzamide], the IC50 in test [1] is above 50 µM.
On the same count and under the same terms, as for `O=C(NCCOc1ccccc1)c1ccc(Nc2cc(N3CCC(O)CC3)ncn2)cc1` [Compound 21, 4-((6-(4-Hydroxypiperidin-1-yl)pyrimidin-4-yl)amino)-N-(2-phenoxyethyl)benzamide], the figure is above 50 µM; as for `NC1CCN(c2cc(Nc3ccc(C(=O)NCCOc4ccccc4)cc3)ncn2)CC1` [Compound 23, 4-((6-(4-Aminopiperidin-1-yl)pyrimidin-4-yl)amino)-N-(2-phenoxyethyl)benzamide], above 50 µM.
For `N#CCN1CCN(c2cc(Nc3ccc(C(=O)NCCOc4ccccc4)cc3)ncn2)CC1` [Compound 24, 4-((6-(4-(Cyanomethyl)piperazin-1-yl)pyrimidin-4-yl)amino)-N-(2-phenoxyethyl)benzamide], in test [1], the IC50 is above 50 µM and the “MCF-7 IC50” value is “loss of activity”.

The values are drawn from PMC11375794, “Discovery of new Hsp90–Cdc37 protein–protein interaction inhibitors: in silico screening and optimization of anticancer activity” (RSC Advances, 2024).
